Results as given in the NIST ThermoML archive (doi:10.1021/je034225b).

Columns and labels:
[1] = xn = mol fraction of the nth substance listed; settings: for surface tension liquid-gas: 297 K; for mass density: 100 kPa, Liquid, Pycnometric method
[2] = 297 K

CNC [dimethylamine] + O
[1]
Settings | surface tension liquid-gas [mN/m]
x1 = 0.002 | 68.4
x1 = 0.003 | 65.7
x1 = 0.004 | 65.8
x1 = 0.006 | 64.7
x1 = 0.008 | 62.8
x1 = 0.01 | 61.8
x1 = 0.013 | 60.4
x1 = 0.016 | 58.4
x1 = 0.025 | 56.1
x1 = 0.034 | 53.2
x1 = 0.043 | 51
x1 = 0.052 | 49.1
x1 = 0.061 | 48.1
x1 = 0.071 | 47.8
x1 = 0.091 | 42.4
x1 = 0.112 | 40.4
x1 = 0.135 | 38.9
x1 = 0.158 | 36.8
x1 = 0.184 | 35.3
x1 = 0.21 | 33.7

[1], 298.15 K
Settings | mass density [kg/m3]
x1 = 0.001 | 998
x1 = 0.002 | 994
x1 = 0.004 | 988
x1 = 0.008 | 987
x1 = 0.016 | 984
x1 = 0.025 | 974
x1 = 0.034 | 969
x1 = 0.043 | 967
x1 = 0.091 | 941
x1 = 0.146 | 918
x1 = 0.21 | 888

O=S(=O)(O)O [sulfuric acid] + O
[1]
Settings | surface tension liquid-gas [mN/m]
x1 = 0.001 | 71.6
x1 = 0.003 | 71.4
x1 = 0.006 | 71.2
x1 = 0.008 | 71.9
x1 = 0.026 | 72.4
x1 = 0.052 | 73.1
x1 = 0.09 | 74
x1 = 0.125 | 74.7
x1 = 0.18 | 75.2
x1 = 0.25 | 73.6
x1 = 0.35 | 72.3
x1 = 0.48 | 69.4

mass density [kg/m3], [1]
Settings | 298.15 K | 571.15 K
x1 = 0.001 | 998 | –
x1 = 0.003 | 1005 | 1005
x1 = 0.006 | 1017 | –
x1 = 0.008 | 1024 | –
x1 = 0.026 | 1085 | –
x1 = 0.052 | 1156 | –
x1 = 0.09 | 1253 | –
x1 = 0.125 | 1328 | –
x1 = 0.18 | 1422 | –
x1 = 0.25 | 1528 | –
x1 = 0.35 | 1622 | –
x1 = 0.48 | 1725 | –

O [water]
Settings | surface tension liquid-gas [mN/m]
[2] | 70.4
